According to PubChem BioAssay AID1845195 (Molecular Pharmacology Branch, DTP, NCI, 2023):

System: 156681-154-R-J1 tumor spheroid viability
Assay: Anticancer human tumor 156681-154-R-J1 patient-derived melanoma cell line growth inhibition
Conditions: spheroids with HUVEC and MSC; for IC50: curve of first compound; for viability, T/C: stronger effect = lower value
Method in brief: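 Complex tumor spheroids combined malignant cells with endothelial cells and mesenchymal stem cells. DNA-damaging drugs and DNA repair inhibitors were tested alone and in combination, at half-log dilutions down from clinical Cmax (top 10 microM if Cmax unknown), 0.25% DMSO final.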

[1] = second compound 0.003 µM, first compound 0.0316 µM
[2] = second compound 0.003 µM, first compound 0.1 µM
[3] = second compound 0.003 µM, first compound 0.316 µM
[4] = second compound 0.003 µM, first compound 1 µM
[5] = second compound 0.003 µM, first compound 3.16 µM
[6] = second compound 0.003 µM, first compound 10 µM
[7] = second compound 0.00949 µM, first compound 0.0316 µM
[8] = second compound 0.00949 µM, first compound 0.1 µM
[9] = second compound 0.00949 µM, first compound 0.316 µM
[10] = second compound 0.00949 µM, first compound 1 µM
[11] = second compound 0.00949 µM, first compound 3.16 µM
[12] = second compound 0.00949 µM, first compound 10 µM
[13] = second compound 0.03 µM, first compound 0.0316 µM
[14] = second compound 0.03 µM, first compound 0.1 µM
[15] = second compound 0.03 µM, first compound 0.316 µM
[16] = second compound 0.03 µM, first compound 1 µM
[17] = second compound 0.03 µM, first compound 3.16 µM
[18] = second compound 0.03 µM, first compound 10 µM
[19] = second compound 0.0949 µM, first compound 0.0316 µM
[20] = second compound 0.0949 µM, first compound 0.1 µM
[21] = second compound 0.0949 µM, first compound 0.316 µM
[22] = second compound 0.0949 µM, first compound 1 µM
[23] = second compound 0.0949 µM, first compound 3.16 µM
[24] = second compound 0.0949 µM, first compound 10 µM
[25] = second compound 0.3 µM, first compound 0.0316 µM
[26] = second compound 0.3 µM, first compound 0.1 µM
[27] = second compound 0.3 µM, first compound 0.316 µM
[28] = second compound 0.3 µM, first compound 1 µM
[29] = second compound 0.3 µM, first compound 3.16 µM
[30] = second compound 0.3 µM, first compound 10 µM
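Note: spheroids exposed to compounds for 7 days before readout.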
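Throughout, for viability, T/C: percent of vehicle control viability where 100% = DMSO-treated spheroids.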

Row | SMILES | IC50 (second compound 0.003 µM) [nM] | IC50 (second compound 0.00949 µM) [nM] | IC50 (second compound 0.03 µM) [nM] | IC50 (second compound 0.0949 µM) [nM] | IC50 (second compound 0.3 µM) [nM] | viability, T/C [1] [%] | viability, T/C [2] [%] | viability, T/C [3] [%] | viability, T/C [4] [%] | viability, T/C [5] [%] | viability, T/C [6] [%] | viability, T/C [7] [%] | viability, T/C [8] [%] | viability, T/C [9] [%] | viability, T/C [10] [%] | viability, T/C [11] [%] | viability, T/C [12] [%] | viability, T/C [13] [%] | viability, T/C [14] [%] | viability, T/C [15] [%] | also measured
1 | CC(C)n1c(=O)n(C)c2cnc3cc(F)c(-c4ccc(OCCCN5CCCCC5)nc4)cc3c21 + CC[C@@]1(O)C(=O)OCc2c1cc1n(c2=O)Cc2cc3c(CN(C)C)c(O)ccc3nc2-1 | > 10000 | > 10000 | 55.1 | < 31.6 | < 31.6 | 83 | 92.7 | 77.3 | 78.8 | 97.9 | 85.5 | 77.2 | 75 | 74.4 | 76.3 | 80.8 | 78.8 | 57.8 | 44.7 | 30.3 | viability, T/C [16]: 29.6%; viability, T/C [17]: 44.8%; viability, T/C [18]: 31.7%; viability, T/C [19]: 11.9%; viability, T/C [20]: 10.2%; viability, T/C [21]: 10.8%; viability, T/C [22]: 13.2%; viability, T/C [23]: 11.8%; viability, T/C [24]: 13.6%; viability, T/C [25]: 10.2%; viability, T/C [26]: 9.03%; viability, T/C [27]: 9.13%; viability, T/C [28]: 9.94%; viability, T/C [29]: 9.43%; viability, T/C [30]: 15%
2 | CC1COCCN1c1cc(-c2ccnn2C)c2ccnc(-c3ccn[nH]3)c2n1 (stereo not given) + CC[C@@]1(O)C(=O)OCc2c1cc1n(c2=O)Cc2cc3c(CN(C)C)c(O)ccc3nc2-1 | 175 | 194 | 52.4 | < 31.6 | < 31.6 | 83.5 | 62.5 | 36.7 | 27.1 | 26.7 | 23.9 | 60.7 | 66.5 | 39.9 | 31.9 | 29.6 | 23.6 | 55.2 | 44.8 | 32.8 | viability, T/C [16]: 28.5%; viability, T/C [17]: 27.4%; viability, T/C [18]: 23.5%; viability, T/C [19]: 26.3%; viability, T/C [20]: 26.6%; viability, T/C [21]: 28.3%; viability, T/C [22]: 27.5%; viability, T/C [23]: 26.7%; viability, T/C [24]: 21.1%; viability, T/C [25]: 35.2%; viability, T/C [26]: 34.3%; viability, T/C [27]: 39.6%; viability, T/C [28]: 37.2%; viability, T/C [29]: 29.6%; viability, T/C [30]: 27.6%
3 | COc1cc(C)[nH]c(=O)c1CN1CCc2c(Cl)cc(C(OC)C3COC3)c(Cl)c2C1=O (stereo not given) + CC[C@@]1(O)C(=O)OCc2c1cc1n(c2=O)Cc2cc3c(CN(C)C)c(O)ccc3nc2-1 | > 10000 | > 10000 | > 10000 | < 31.6 | < 31.6 | 106 | 93.3 | 120 | 99 | 95.3 | 96.8 | 105 | 83.2 | 91.6 | 88.7 | 84.7 | 92.3 | 80.4 | 71.1 | 77 | viability, T/C [16]: 86.3%; viability, T/C [17]: 77.7%; viability, T/C [18]: 84.9%; viability, T/C [19]: 28.8%; viability, T/C [20]: 31.6%; viability, T/C [21]: 34.6%; viability, T/C [22]: 32.3%; viability, T/C [23]: 32.5%; viability, T/C [24]: 49.5%; viability, T/C [25]: 38.6%; viability, T/C [26]: 42.4%; viability, T/C [27]: 38.1%; viability, T/C [28]: 39.4%; viability, T/C [29]: 40.1%; viability, T/C [30]: 38.2%
4 | COc1ccc([C@@H](O)c2cc(-c3ncnc4cc(N5CCOCC5)ccc34)c(F)cc2Cl)nn1 + CC[C@@]1(O)C(=O)OCc2c1cc1n(c2=O)Cc2cc3c(CN(C)C)c(O)ccc3nc2-1 | 5780 | 3580 | 616 | < 31.6 | < 31.6 | 80.6 | 70.4 | 78.3 | 63.9 | 54.4 | 46.6 | 89.9 | 75.9 | 75 | 62.4 | 47.6 | 43.3 | 71.5 | 57.8 | 53.9 | viability, T/C [16]: 49.5%; viability, T/C [17]: 41.8%; viability, T/C [18]: 35.3%; viability, T/C [19]: 24.1%; viability, T/C [20]: 30.7%; viability, T/C [21]: 30.3%; viability, T/C [22]: 34%; viability, T/C [23]: 36.3%; viability, T/C [24]: 28.4%; viability, T/C [25]: 32.9%; viability, T/C [26]: 36.8%; viability, T/C [27]: 35.6%; viability, T/C [28]: 42.1%; viability, T/C [29]: 25.9%; viability, T/C [30]: 8.42%
5 | [2H]c1nc(C)nc([2H])c1-c1cc(NC[C@@H](C)c2cccc3c(C(=O)NC)ccnc23)ncn1 + CC[C@@]1(O)C(=O)OCc2c1cc1n(c2=O)Cc2cc3c(CN(C)C)c(O)ccc3nc2-1 | > 10000 | > 10000 | > 10000 | < 31.6 | < 31.6 | 100 | 132 | 112 | 92.2 | 92.3 | 78 | 97.6 | 81.4 | 103 | 95.8 | 97.2 | 78.2 | 69.3 | 72.3 | 66.6 | viability, T/C [16]: 65.6%; viability, T/C [17]: 64.7%; viability, T/C [18]: 76%; viability, T/C [19]: 28.3%; viability, T/C [20]: 26.2%; viability, T/C [21]: 27.4%; viability, T/C [22]: 25%; viability, T/C [23]: 32.4%; viability, T/C [24]: 29.9%; viability, T/C [25]: 37.1%; viability, T/C [26]: 32.6%; viability, T/C [27]: 31.5%; viability, T/C [28]: 40.6%; viability, T/C [29]: 33.2%; viability, T/C [30]: 36.4%
